From PubChem BioAssay AID330 (DTP/NCI, 2004)
“And” between values parts separate entries of the source, which are not always exact repeats. Identical values can stand only once. Toxic doses and inconclusive results are not listed.

System: P388 leukemia ip, CD2F1 mice, survival T/C
Assay: NCI In Vivo Anticancer Drug Screen. Data for tumor model P388 Leukemia (intraperitoneal) in CD2F1 (CDF1) mice
Conditions: endpoint: median survival time, higher = longer survival
Procedure, shortened: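 Mice carrying the transplanted tumor received test compound or vehicle. Survival was recorded in each group, and the value is the treated-group measurement divided by that of the vehicle-treated control group.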

[1] = dose: 6.25 mg/kg/injection, schedule: Q01DX009 (ip), vehicle: saline with Tween-80
[2] = dose: 12.5 mg/kg/injection, schedule: Q01DX009 (ip), vehicle: saline with Tween-80
[3] = dose: 25.0 mg/kg/injection, schedule: Q01DX009 (ip), vehicle: saline with Tween-80
[4] = dose: 50.0 mg/kg/injection, schedule: Q01DX009 (ip), vehicle: saline with Tween-80
[5] = dose: 100.0 mg/kg/injection, schedule: Q01DX009 (ip), vehicle: Klucel (hydroxypropylcellulose) (HPC)

Compound: Clc1ccc(NCc2ccc(CNc3ccc(Cl)cc3)cc2)cc1
- T/C [1]: 98 % of control
- T/C [2]: 91 % of control
- T/C [3]: 91 % of control
- T/C [4]: 97 % of control

Compound: CNC(=O)Nc1ccc[nH]c1=O
- T/C (dose: 25.0 mg/kg/injection, schedule: Q01DX009 (ip), vehicle: Klucel (hydroxypropylcellulose) (HPC)): 103 % of control and 95 % of control
- T/C (dose: 25.0 mg/kg/injection, schedule: Q01DX009 (ip), vehicle: saline): 101 % of control
- T/C (dose: 50.0 mg/kg/injection, schedule: Q01DX009 (ip), vehicle: Klucel (hydroxypropylcellulose) (HPC)): 90 % of control and 91 % of control
- T/C (dose: 50.0 mg/kg/injection, schedule: Q01DX009 (ip), vehicle: saline): 99 % of control and 97 % of control
- T/C [5]: 105 % of control and 96 % of control
- T/C (dose: 100.0 mg/kg/injection, schedule: Q01DX009 (ip), vehicle: saline): 100 % of control and 108 % of control
- T/C (dose: 200.0 mg/kg/injection, schedule: Q01DX009 (ip), vehicle: Klucel (hydroxypropylcellulose) (HPC)): 101 % of control and 87 % of control
- T/C (dose: 200.0 mg/kg/injection, schedule: Q01DX009 (ip), vehicle: saline): 99 % of control
- T/C (dose: 400.0 mg/kg/injection, schedule: Q01DX009 (ip), vehicle: Klucel (hydroxypropylcellulose) (HPC)): 109 % of control and 96 % of control
- T/C (dose: 400.0 mg/kg/injection, schedule: Q01DX009 (ip), vehicle: saline): 102 % of control and 109 % of control

Compound: O=C(O)CCc1c[nH]c2ccc(N(CCCl)CCCl)cc12
- T/C (dose: 0.08 mg/kg/injection, schedule: Q04DX003 (ip), vehicle: saline with Tween-80): 163 % of control
- T/C (dose: 0.15 mg/kg/injection, schedule: Q04DX003 (ip), vehicle: saline with Tween-80): 100 % of control
- T/C (dose: 0.25 mg/kg/injection, schedule: Q01DX009 (ip), vehicle: saline): 104 % of control
- T/C (dose: 0.33 mg/kg/injection, schedule: Q04DX003 (ip), vehicle: saline with Tween-80): 177 % of control
- T/C (dose: 0.5 mg/kg/injection, schedule: Q04DX003 (ip), vehicle: saline with Tween-80): 177 % of control
- T/C (dose: 0.75 mg/kg/injection, schedule: Q04DX003 (ip), vehicle: saline with Tween-80): 104 % of control

Compound: CCN(CC)CCNc1ccc(C)c2sc3cccc(O)c3c(=O)c12
- T/C [5]: 181 % of control

Compound: CC(=S)SC1(C)SC(C)(SC(C)=S)S1 (configuration not stated)
- T/C [3]: 91 % of control
- T/C [4]: 94 % of control
- T/C (dose: 100.0 mg/kg/injection, schedule: Q01DX009 (ip), vehicle: saline with Tween-80): 94 % of control

Compound: Nc1nc(=O)n(C2OC(CO)C(O)C2O)cc1F (configuration not stated)
- T/C (dose: 9.0 mg/kg/injection, schedule: Q01DX009 (ip), vehicle: saline sonified): 190 % of control
- T/C (dose: 9.0 mg/kg/injection, schedule: Q04DX003 (ip), vehicle: saline sonified): 154 % of control
- T/C (dose: 18.0 mg/kg/injection, schedule: Q01DX009 (ip), vehicle: saline sonified): 200 % of control
- T/C (dose: 18.0 mg/kg/injection, schedule: Q04DX003 (ip), vehicle: saline sonified): 162 % of control
- T/C (dose: 24.0 mg/kg/injection, schedule: Q04DX003 (ip), vehicle: saline with Tween-80): 181 % of control
- T/C (dose: 36.0 mg/kg/injection, schedule: Q01DX009 (ip), vehicle: saline sonified): 236 % of control
- T/C (dose: 36.0 mg/kg/injection, schedule: Q04DX003 (ip), vehicle: saline sonified): 162 % of control
- T/C (dose: 36.0 mg/kg/injection, schedule: Q04DX003 (ip), vehicle: saline with Tween-80): 172 % of control
- T/C (dose: 54.0 mg/kg/injection, schedule: Q04DX003 (ip), vehicle: saline with Tween-80): 186 % of control

Compound: CCCCN(CCCC)CC(O)c1ccc2cc(Cl)cc(Cl)c2n1 (configuration not stated)
- T/C [1]: 90 % of control
- T/C [2]: 100 % of control
- T/C [3]: 100 % of control

Compound: O=c1ccc2ccc3[nH]onc3c2c1
- T/C (dose: 50.0 mg/kg/injection, schedule: Q01DX005 (ip), vehicle: saline with Tween-80): 100 % of control
- T/C (dose: 100.0 mg/kg/injection, schedule: Q01DX005 (ip), vehicle: saline with Tween-80): 93 % of control
- T/C (dose: 200.0 mg/kg/injection, schedule: Q01DX005 (ip), vehicle: saline with Tween-80): 88 % of control

Compound: COc1ccccc1-n1cccc(C#N)c1=S
- T/C (dose: 60.0 mg/kg/injection, schedule: Q01DX005 (ip), vehicle: Klucel (hydroxypropylcellulose) (HPC)): 98 % of control
- T/C (dose: 120.0 mg/kg/injection, schedule: Q01DX005 (ip), vehicle: Klucel (hydroxypropylcellulose) (HPC)): 91 % of control
- T/C (dose: 240.0 mg/kg/injection, schedule: Q01DX005 (ip), vehicle: Klucel (hydroxypropylcellulose) (HPC)): 89 % of control
